Results taken from US12053460B2, “Inhibitors of intracellular invasion” (Meharry Medical College, priority 2016, dated 2024).
“Also recorded” adds a separate entry of the source.

How the values were obtained:
P. gingivalis vesicles = test: Invasion of P. gingivalis outer membrane vesicles into HOKs (confocal microscopy); conditions: for inhibitory efficiency on internalization of P. gingivalis vesicles (comparison of compounds): vs DMSO control; for reduction of the total number of HOKs with intracellular vesicles: vs HOKs unexposed to compound, P<0.001
Method: Human oral keratinocytes (HOKs) were purchased from ScienCell Research Laboratories (Carlsbad, CA) and cultured in specific media, according to the manufacturer's instructions. Prior to treatment, HOKs (2×10^4) were seeded and grown overnight in poly-L-lysine-coated 35 mm glass bottom dishes (MatTek Corporation) at 37° C., 5% CO2, then exposed to P. gingivalis 33277 (2×10^6) or its vesicles (100 ng) for 0 or proper experimental times. To examine the role of Alop1 and dynasore in the bacterial invasion, the compounds were added to the medium 10 min prior to infection.
HOKs were fixed with 3.8% formaldehyde in a sodium phosphate buffer at room temperature for 10 min after treatment, permeabilized with 0.1% Triton X-100 for 10 min, and blocked with 5% bovine serum albumin in PBS for 1 h. HOKs were then immunostained with pan-specific antibodies of P. gingivalis 33277, and α Tubulin or Actin mono-antibodies (Santa Cruz Biotechnology, Dallas, Texas), followed by goat anti-rabbit IgG conjugated to Alex Fluor 546 (Invitrogen). Nuclei were stained with DAPI (Invitrogen). Confocal images were acquired using a Nikon A1R confocal microscope.
For infection rate determination, the number of HOKs with intercellular P. gingivalis cells or its vesicles were determined and divided by the total number of HOKs by counting the cells in 30 random areas (5.6 μm×5.6 μm) under the confocal microscope. Moreover, fluorescence intensity was determined in 100 individual cells using imaging software NIS-Elements AR 4.20, which reflects the level of intercellular P. gingivalis and its vesicles in the infected HOKs.

P. gingivalis = conditions: literature [21]; cited from earlier work
microtubules in HOKs = test: Microtubule arrangement in HOKs (anti-α-tubulin staining, confocal microscopy); format: cell-based, human; conditions: 30 μM
P. gingivalis 33277 [1] = test: Exit of intracellular P. gingivalis cells from HOKs; conditions: 30 μM, 20 h, with gentamicin and metronidazole
P. gingivalis 33277 [2] = test: Invasion of P. gingivalis cells into HOKs (confocal microscopy); format: cell-based, Porphyromonas gingivalis; conditions: for P. gingivalis cell entry into HOKs: vs untreated HOKs
Source text: Nuclei were stained with DAPI (Invitrogen).

actin in HOKs = test: Actin arrangement in HOKs (anti-actin staining, confocal microscopy); format: cell-based, human; conditions: treated for 0, 10, 30 min or 2 h
fimA = test: Gene expression in P. gingivalis (qRT-PCR); conditions: 30 μM, 16 h
[3] = after removal of compounds from growth media

Compound | inhibitory efficiency on internalization of P. gingivalis vesicles (comparison of compounds) (P. gingivalis vesicles; 30 μM, 2 h) | P. gingivalis invasion of epithelial cells (P. gingivalis) | reversibility of the effect on microtubule arrangement (microtubules in HOKs; [3]) | start of recovery of microtubule arrangement after compound removal (microtubules in HOKs; [3]) | microtubule arrangement in HOKs (microtubules in HOKs; observed 30 min after treatment) | exit of intracellular P. gingivalis from HOKs (P. gingivalis 33277 [1]) | reduction of the total number of HOKs with intracellular vesicles (P. gingivalis vesicles; 6 μM, 2 h) | fluorescence intensity of internalized vesicles in HOKs (P. gingivalis vesicles; 30 μM, 100 infected HOKs, vs non-exposed HOKs) | reduction of the total number of HOKs with intracellular vesicles (P. gingivalis vesicles; 30 μM, 2 h) | inhibitory activity on P. gingivalis vesicle invasion of HOKs, dose dependence (P. gingivalis vesicles; different doses, 2 h) | host cell invasion by P. gingivalis (P. gingivalis 33277 [2]; at concentrations of 1.2, 6, and 30 μM in vitro) | P. gingivalis cell entry into HOKs (P. gingivalis 33277 [2]) | actin arrangement in HOKs (actin in HOKs) | expression of fimA (fimA)
C=C1[C@@H](C)[C@H]2[C@H](Cc3ccccc3)NC(=O)[C@]23[C@H](OC(C)=O)/C=C/[C@@](C)(O)C(=O)[C@@H](C)C/C=C/[C@H]3[C@@H]1O [cytochalasin D, reference compound] | significant inhibitory activity was not observed | inhibited P. gingivalis invasion of epithelial cells |  |  |  |  |  |  |  |  |  |  |  | 
O=C(N/N=C/c1ccc(O)c(O)c1)c1cc2ccccc2cc1O [dynasore] | highest efficiency |  | reversible | 2 h | microtubules became more condensed and formed a cortical outer shell at the cell membrane | no significant change in the fluorescence intensity; also recorded: able to block the bacterial exit from HOKs | 40% | significantly lower fluorescence intensity | over 95% | dose-dependent manner | inhibit host cell invasion | effectively block P. gingivalis cell entry into HOKs | alteration of actin arrangement was not detected | specifically inhibited expression of fimA
COC(=O)Nc1nc2ccc(C(=O)c3cccs3)cc2[nH]1 [nocodazole, reference compound] |  | inhibited P. gingivalis invasion of epithelial cells |  |  |  |  |  |  |  |  |  | effectively block P. gingivalis cell entry into HOKs |  | 
